# Assay results: patent US12275685B2, “Oligo-benzamide analogs and their use in cancer treatment” (Board of Regents, The University of Texas System, priority 2018, dated 2025)
# “Also recorded” adds a separate entry of the source.
# Assays:
# TNBC PDX tumors = assay: TNBC patient derived xenografts (PDX); assay type: in vivo, mice; conditions: 10 mg/kg/day oral
# Protocol: FIGS. 7A-7C show effect of TK41 in triple negative breast cancer in patient derived xenografts. TNBC patient derived xenografts (n=6) were established in nude mice and treated with vehicle (circle markers) or 10 mg/kg/day/oral ERX-41 (i.e., TK41; square markers).
# FIGS. 32A-C show established breast PDX tumors treated either with vehicle (circles) or ERX-41 (squares). Tumor volume is graphed (left), distribution of tumor weights at necropsy (middle panel). *p<0.05; […].
# FIGS. 35A-P: ERX-41 is potent against TNBC in vivo. (FIG. 35A) Following establishment of subcutaneous MDA-MB-231 xenograft tumors (200 mm^3), 10 mg/kg single dose ERX-41 was administered either by oral or intraperitoneal route. The tumor was harvested 0, 0, 5, 1, 5, 3, 6 and 24 h after drug administration and the drug levels assayed by LC-MS/MS and graphed. (FIGS. 35B-E) Following establishment of MDA-MB-231 xenografts in mammary fat pad in vivo (100 mm^3 size), daily administration of 10 mg/kg ERX-41 or vehicle control (N=8 each group) was initiated. Tumor volumes were measured using digital calipers and graphed (FIG. 35B). Tumor weights (FIG. 35C), body weights (FIG. 35D) and extirpated tumors (FIG. 35E) at end of study are also shown. […] Tumor volumes were measured using digital calipers and graphed (FIG. 35F) along with tumor weights (FIG. 35G) and body weights (FIG. 35H). […]
# lipase activity of LIPA = target: T1, lipase activity of LIPA (Homo sapiens, UniProt P38571); assay: Lipase activity assay; assay type: biochemical; conditions: SUM-159 cells
# T1 construct: lipase activity of parental SUM-159 (WT) and SUM-159 cells with LIPA KO; endogenous in cells; host or cells: SUM-159 (parental)
# T1 sequence (P38571 77-399): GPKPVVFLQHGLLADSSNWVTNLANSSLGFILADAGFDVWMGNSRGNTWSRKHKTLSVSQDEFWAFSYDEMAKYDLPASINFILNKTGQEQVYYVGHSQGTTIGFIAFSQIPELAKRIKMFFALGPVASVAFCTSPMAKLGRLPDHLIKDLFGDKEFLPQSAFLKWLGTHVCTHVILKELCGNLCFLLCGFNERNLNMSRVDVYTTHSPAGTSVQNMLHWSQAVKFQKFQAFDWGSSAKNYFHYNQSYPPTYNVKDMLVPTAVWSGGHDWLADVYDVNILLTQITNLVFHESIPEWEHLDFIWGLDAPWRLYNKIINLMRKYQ
# Source text: FIGS. 39A-N: (FIGS. 39A-E) Predicted binding mode of ERX-41 (colored in green) on the human lysosomal acid lipase (LAL, PDB code: 6V7N, LXXLL (SEQ ID NO: 1) domain colored in orange). (FIG. 39F) PDB structure of LAL protein showing relative positions of the catalytic domain (with H274Y MT) and the LXXLL (SEQ ID NO: 1) domain (L242P MT). (FIG. 39G) Evaluation of the effect of ERX-41 and lalistat (known lipase inhibitor) on lipase activity of parental SUM-159 (WT) and SUM-159 cells with LIPA KO. (FIG. 39H) Evaluation of basal lipase activity in parental SUM-159 (WT), SUM-159 cells with LIPA KO (KO), SUM-159 cells with LIPA KO and with reconstitution of either WT LIPA (KO+WT), H274Y MT-LIPA (KO+H274Y), DLXXLL (SEQ ID NO: 2) MT-LIPA (KO+DLXXLL (SEQ ID NO: 2)) or L242P MT-LIPA (KO+L242P). Protein expression of LAL and control vinculin in these cells are shown below (FIG. 391) Cellular lysates from described SUM-159 cells were incubated with biotinylated ERX-11 or biotinylated ERX-41 and then subject to a streptavidin column. Elutants were then evaluated for LIPA pulldown by western blotting. (FIG. 39J) Dose response curve to increasing concentrations of ERX-41 in described SUM-159 cells. (FIGS. 39K-M) Effect of vehicle or 1 μM ERX-41 on induction of UPR genes at the protein level (FIG. 39K) or RNA level (FIGS. 39L-M). […]
smiles,measurement,setting,value
CC(C)COc1cc(C(=O)Nc2ccc(C(=O)N[C@H]3CC[C@H](C)CC3)cc2OCC(C)C)ccc1NC(=O)c1ccc([N+](=O)[O-])c(OCCO)c1 [TK41],growth of TNBC PDX tumors,TNBC PDX tumors,significantly decreased the growth
same,growth of TNBC PDX tumors,TNBC PDX tumors; listed as ERX-41,significantly decreased the rates of growth; also recorded: has activity against TNBC PDX tumors
same,effect on lipase activity of LIPA,lipase activity of LIPA,no inhibition of lipase activity
